From patent US7592457B2 (Korea Research Institute of Chemical Technology, priority 2004, dated 2009)

Key:
[1] = target: T1, human serotonin 5-HT6 receptor (Homo sapiens, UniProt P50406); assay: [3H]LSD binding at cloned 5-HT6 receptors; details: for IC50: [3H]LSD 1.87 nM, cloned receptor membranes, 37° C., 60 min, read-out: IC50; for inhibition at 10 µM: read-out: Binding affinity (Inhibition rate % at 10 μM) 5HT6
T1 construct: made in house; host or cells: Sf21 insect cells (pBacPAK8 baculovirus vector)

D1 = D1 (Homo sapiens, UniProt P21728); assay: Radioligand binding for selectivity, D1; details: read-out: Binding affinity (Inhibition rate % at 10 μM) D1
hD2L receptor = target: T2, hD2L receptor (Homo sapiens, UniProt P14416); assay: Radioligand binding, dopamine D2 ([3H]spiperone); details: read-out: Binding affinity (Inhibition rate % at 10 μM) D2
T2 construct: purchased BioSignal Packard Inc., Montreal, Canada
Experimental: (§1) The radioligands used were [^3H] spiperone (for hD2L and hD3 receptors, 1 nM) and [^3H] YM-09151-2 (for hD4.2 receptor, 0.06 nM). Radioligand bindings were performed by the protocols provided by the supplier of receptor membranes (BioSignal Packard Inc., Montreal, Canada). Briefly, the buffer used in D2 or D3 receptor binding assay was 50 mM Tris-HCl (pH 7.4), 10 mM MgCl2, 1 mM EDTA, or 50 mM Tris-HCl (pH 7.4), 5 mM MgCl2, 5 mM EDTA, 5 mM KCl, 1.5 mM CaCl2, 120 mM NaCl, respectively. In [^3H] YM-09151-2 receptor binding assays, the buffer containing 50 mM Tris-HCl (pH 7.4), 5 mM MgCl2, 5 mM EDTA, 5 mM KCl and 1.5 mM CaCl2 was used. Nonspecific binding was determined with haloperidol (10 μM) or clozapine (10 μM) for D2 and D3, and D4 receptors, respectively. Competition binding studies were carried out with 7-8 concentrations of the test compound run in duplicate tubes, and isotherms from three assays were calculated by computerized nonlinear regression analysis (GraphPad Prism Program, San Diego, […]) to yield median inhibitory concentration (IC50) values.

hD3 receptor = target: T3, hD3 receptor (Homo sapiens, UniProt P35462); assay: Radioligand binding, dopamine D3 ([3H]spiperone); details: read-out: Binding affinity (Inhibition rate % at 10 μM) D3
T3 construct: purchased BioSignal Packard Inc., Montreal, Canada
Experimental: as §1

hD4.2 receptor = target: T4, hD4.2 receptor (Homo sapiens, UniProt P21917, DEL265-296); assay: Radioligand binding, dopamine D4 ([3H]YM-09151-2); details: read-out: Binding affinity (Inhibition rate % at 10 μM) D4
T4 construct: purchased BioSignal Packard Inc., Montreal, Canada
T4 sequence (P21917 with tags, fused parts or gaps DEL265-296): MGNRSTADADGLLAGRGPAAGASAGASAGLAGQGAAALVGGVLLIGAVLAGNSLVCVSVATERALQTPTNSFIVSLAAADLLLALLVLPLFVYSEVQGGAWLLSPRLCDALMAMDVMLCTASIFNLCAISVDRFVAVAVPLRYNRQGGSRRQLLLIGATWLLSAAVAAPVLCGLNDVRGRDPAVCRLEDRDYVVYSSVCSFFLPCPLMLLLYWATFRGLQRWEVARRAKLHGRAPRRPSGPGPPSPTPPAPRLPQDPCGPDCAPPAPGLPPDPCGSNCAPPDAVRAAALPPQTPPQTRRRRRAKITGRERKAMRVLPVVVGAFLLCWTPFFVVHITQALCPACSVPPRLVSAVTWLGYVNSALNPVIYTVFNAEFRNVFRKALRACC
Experimental: as §1

5-HT1a = target: T5, 5-HT1a (Homo sapiens, UniProt P08908); assay: Radioligand binding, 5-HT1a ([3H]8-OH-DPAT); details: read-out: Binding affinity (Inhibition rate % at 10 μM) 5HT1a
T5 construct: purchased Euroscreen/BioSignal Packard Inc
T5 sequence (P08908 1-422): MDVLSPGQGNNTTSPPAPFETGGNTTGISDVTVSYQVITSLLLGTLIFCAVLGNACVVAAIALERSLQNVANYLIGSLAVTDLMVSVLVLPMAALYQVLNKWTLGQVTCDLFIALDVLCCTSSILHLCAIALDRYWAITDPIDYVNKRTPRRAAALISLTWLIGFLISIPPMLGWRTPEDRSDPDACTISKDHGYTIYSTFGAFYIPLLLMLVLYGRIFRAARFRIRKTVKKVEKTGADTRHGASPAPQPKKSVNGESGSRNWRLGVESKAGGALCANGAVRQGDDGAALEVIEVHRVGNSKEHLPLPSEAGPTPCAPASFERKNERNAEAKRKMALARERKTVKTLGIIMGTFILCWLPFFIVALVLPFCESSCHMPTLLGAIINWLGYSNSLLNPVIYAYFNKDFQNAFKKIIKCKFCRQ
Experimental: (§2) Radioligand bindings were performed according to the test method provided by the supplier of receptor membrane (Euroscreen/BioSignal Packard Inc.).

5-HT2a = target: T6, 5-HT2a (Homo sapiens, UniProt P28223); assay: Radioligand binding, 5-HT2a ([3H]Ketanserin); details: read-out: Binding affinity (Inhibition rate % at 10 μM) 5HT2a
T6 construct: purchased Euroscreen/BioSignal Packard Inc
Experimental: as §2

5-HT2c = target: T7, 5-HT2c (Homo sapiens, UniProt P28335); assay: Radioligand binding, 5-HT2c ([3H]Mesulergine); details: read-out: Binding affinity (Inhibition rate % at 10 μM) 5HT2c
T7 construct: purchased Euroscreen/BioSignal Packard Inc
T7 sequence (P28335 33-458): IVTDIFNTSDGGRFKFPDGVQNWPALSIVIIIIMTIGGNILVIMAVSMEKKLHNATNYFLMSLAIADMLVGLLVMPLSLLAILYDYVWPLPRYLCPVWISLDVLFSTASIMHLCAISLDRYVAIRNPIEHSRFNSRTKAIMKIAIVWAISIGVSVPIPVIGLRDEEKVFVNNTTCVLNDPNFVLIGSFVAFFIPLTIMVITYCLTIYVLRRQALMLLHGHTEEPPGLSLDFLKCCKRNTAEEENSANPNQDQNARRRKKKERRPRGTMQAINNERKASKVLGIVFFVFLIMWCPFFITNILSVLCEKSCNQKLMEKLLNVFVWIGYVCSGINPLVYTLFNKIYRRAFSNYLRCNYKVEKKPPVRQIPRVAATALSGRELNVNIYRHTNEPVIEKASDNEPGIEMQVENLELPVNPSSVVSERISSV
Experimental: as §2

5-HT7 = target: T8, 5-HT7 (Homo sapiens, UniProt P34969); assay: Radioligand binding, 5-HT7 ([3H]LSD); details: read-out: Binding affinity (Inhibition rate % at 10 μM) 5HT7
T8 construct: purchased Euroscreen/BioSignal Packard Inc
Experimental: as §2

T3 sequence (P35462 whole entry): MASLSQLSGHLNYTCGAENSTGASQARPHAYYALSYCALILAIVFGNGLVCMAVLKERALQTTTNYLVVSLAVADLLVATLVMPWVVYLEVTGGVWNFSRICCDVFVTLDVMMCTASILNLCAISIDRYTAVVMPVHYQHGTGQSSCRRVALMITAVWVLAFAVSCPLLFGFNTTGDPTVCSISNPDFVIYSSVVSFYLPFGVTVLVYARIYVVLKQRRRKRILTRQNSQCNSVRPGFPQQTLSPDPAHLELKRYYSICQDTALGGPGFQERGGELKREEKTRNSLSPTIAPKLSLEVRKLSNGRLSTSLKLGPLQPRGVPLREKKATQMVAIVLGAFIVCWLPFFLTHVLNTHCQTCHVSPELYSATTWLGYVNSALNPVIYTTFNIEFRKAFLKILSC
T2 sequence (P14416 whole entry): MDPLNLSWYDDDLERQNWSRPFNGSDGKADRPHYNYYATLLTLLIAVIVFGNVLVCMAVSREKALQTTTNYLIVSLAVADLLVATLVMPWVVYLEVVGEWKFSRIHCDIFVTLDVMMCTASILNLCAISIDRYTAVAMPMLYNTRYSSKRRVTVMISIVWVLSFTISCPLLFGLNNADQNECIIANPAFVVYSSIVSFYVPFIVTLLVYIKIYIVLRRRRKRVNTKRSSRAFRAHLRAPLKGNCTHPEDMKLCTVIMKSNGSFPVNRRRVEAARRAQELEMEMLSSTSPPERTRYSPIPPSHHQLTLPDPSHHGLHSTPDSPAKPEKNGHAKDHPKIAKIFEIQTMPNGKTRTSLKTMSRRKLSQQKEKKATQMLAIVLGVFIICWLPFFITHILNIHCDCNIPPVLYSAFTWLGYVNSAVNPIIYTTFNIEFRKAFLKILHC
T8 sequence (P34969 whole entry): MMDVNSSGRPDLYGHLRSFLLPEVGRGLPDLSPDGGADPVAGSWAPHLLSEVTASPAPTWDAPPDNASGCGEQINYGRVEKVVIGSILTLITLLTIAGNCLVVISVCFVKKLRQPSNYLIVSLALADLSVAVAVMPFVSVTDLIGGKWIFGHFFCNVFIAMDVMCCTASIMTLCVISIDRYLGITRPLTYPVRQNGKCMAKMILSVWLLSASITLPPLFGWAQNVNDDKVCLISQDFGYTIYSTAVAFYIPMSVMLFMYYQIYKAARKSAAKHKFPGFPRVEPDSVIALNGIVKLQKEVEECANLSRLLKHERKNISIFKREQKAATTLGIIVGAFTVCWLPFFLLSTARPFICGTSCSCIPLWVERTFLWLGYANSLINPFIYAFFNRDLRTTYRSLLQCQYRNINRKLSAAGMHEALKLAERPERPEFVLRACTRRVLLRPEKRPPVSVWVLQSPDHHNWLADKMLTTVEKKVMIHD
T6 sequence (P28223 whole entry): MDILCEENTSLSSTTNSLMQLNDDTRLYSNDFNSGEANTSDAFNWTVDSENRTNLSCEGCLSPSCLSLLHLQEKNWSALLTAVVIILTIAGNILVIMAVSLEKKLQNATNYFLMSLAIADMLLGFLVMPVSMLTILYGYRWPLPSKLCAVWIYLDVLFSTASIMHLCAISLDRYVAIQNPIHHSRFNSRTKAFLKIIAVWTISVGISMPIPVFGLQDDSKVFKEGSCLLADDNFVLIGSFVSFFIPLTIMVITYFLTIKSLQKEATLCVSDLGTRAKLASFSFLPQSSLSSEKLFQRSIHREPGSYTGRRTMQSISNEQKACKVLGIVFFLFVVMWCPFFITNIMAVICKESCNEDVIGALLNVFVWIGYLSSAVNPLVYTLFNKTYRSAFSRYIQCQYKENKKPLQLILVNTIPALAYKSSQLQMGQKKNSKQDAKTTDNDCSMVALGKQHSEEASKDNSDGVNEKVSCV
Chain of D1 (P21728 whole entry): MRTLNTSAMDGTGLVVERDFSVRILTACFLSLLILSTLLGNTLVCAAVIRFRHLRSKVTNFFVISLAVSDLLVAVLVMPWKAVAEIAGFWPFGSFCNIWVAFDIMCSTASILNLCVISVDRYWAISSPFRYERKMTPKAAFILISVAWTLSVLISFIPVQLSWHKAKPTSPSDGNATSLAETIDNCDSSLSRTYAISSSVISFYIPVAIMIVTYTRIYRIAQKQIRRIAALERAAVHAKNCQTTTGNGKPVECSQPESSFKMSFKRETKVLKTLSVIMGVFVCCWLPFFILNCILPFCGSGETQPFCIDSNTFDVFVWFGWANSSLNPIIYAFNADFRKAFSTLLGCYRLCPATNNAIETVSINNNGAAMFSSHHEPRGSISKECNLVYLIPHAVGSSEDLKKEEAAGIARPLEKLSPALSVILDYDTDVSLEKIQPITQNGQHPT
T1 sequence (P50406 whole entry): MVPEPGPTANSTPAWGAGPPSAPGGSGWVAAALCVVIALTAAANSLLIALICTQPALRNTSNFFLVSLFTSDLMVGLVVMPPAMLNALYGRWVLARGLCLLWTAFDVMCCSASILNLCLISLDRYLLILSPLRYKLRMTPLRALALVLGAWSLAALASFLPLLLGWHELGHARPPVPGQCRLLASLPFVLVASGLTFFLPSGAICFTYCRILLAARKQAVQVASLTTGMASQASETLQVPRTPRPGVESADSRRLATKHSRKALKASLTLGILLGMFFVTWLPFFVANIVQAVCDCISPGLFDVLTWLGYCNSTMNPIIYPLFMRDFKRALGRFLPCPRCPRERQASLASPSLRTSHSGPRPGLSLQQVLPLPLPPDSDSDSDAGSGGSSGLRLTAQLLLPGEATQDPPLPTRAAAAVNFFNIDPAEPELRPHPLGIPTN

| Compound | IC50 [1] [nM] | inhibition at 10 µM [1] [%] | inhibition at 10 µM (D1) [%] | inhibition at 10 µM (hD2L receptor) [%] | inhibition at 10 µM (hD3 receptor) [%] | inhibition at 10 µM (hD4.2 receptor) [%] | inhibition at 10 µM (5-HT1a) [%] | inhibition at 10 µM (5-HT2a) [%] | inhibition at 10 µM (5-HT2c) [%] | inhibition at 10 µM (5-HT7) [%] |
| --- | --- | --- | --- | --- | --- | --- | --- | --- | --- | --- |
| COc1cc(Cl)c2c(c1)NC(=O)C(C)(c1ccccc1)C2=O (stereo not drawn) [Example 5, 5-chloro-7-methoxy-3-methyl-3-phenyl-1H-quinoline-2,4-dione] | 560 | 73.5 | 10.3 | 20.5 | 10.1 | 0 | 18.9 | 26.8 | 20.5 | 9.4 |
| COc1cc(Br)c2c(c1)NC(=O)C(C)(c1ccccc1)C2=O (stereo not drawn) [Example 7, 5-bromo-7-methoxy-3-methyl-3-phenyl-1H-quinoline-2,4-dione] | 119 | 71.1 | 30.5 | 12.8 | 1.5 | 0.8 | 29.1 | 25.4 | 30.3 | 12.4 |
| CC1(c2ccccc2)C(=O)Nc2c(Br)cc(Br)cc2C1=O (stereo not drawn) [Example 10, 6,8-dibromo-3-methyl-3-phenyl-1H-quinoline-2,14-dione] | 1330 | 73.4 | 13.5 | 11.2 | 19.5 | 0 | 0 | 29.5 | 16.8 | 20.7 |
| CC1(c2ccc([N+](=O)[O-])cc2)C(=O)Nc2cc(Cl)cc(Cl)c2C1=O (stereo not drawn) [Example 14, 5,7-dichloro-3-methyl-3-(4-nitro-phenyl)-1H-quinoline-2,4-dione] | 870 | 71.2 | 6.5 | 26.5 | 30.7 | 0 | 60.5 | 54.1 | 3.8 | 10.8 |
| CC1(c2ccc(N)cc2)C(=O)Nc2cc(Cl)cc(Cl)c2C1=O (stereo not drawn) [Example 15, 3-(4-amino-phenyl)-5,7-dichloro-3-methyl-1H-quinoline-2,4-dione] | 254 | 73 | 4.8 | 0 | 5.8 | 4.5 | 52.3 | 16.9 | 15.6 | 11.1 |
| CC1(c2ccc(I)cc2)C(=O)Nc2cc(Cl)cc(Cl)c2C1=O (stereo not drawn) [Example 16, 5,7-dichloro-3-(4-iodo-phenyl)-3-methyl-1H-quinoline-2,4-dione] | 1550 | 70.9 | 24.7 | 20.1 | 10 | 1.3 | 43.5 | 47.2 | 34.5 | 50.7 |
| CC1(c2ccc(Cl)cc2)C(=O)Nc2cc(Cl)cc(Cl)c2C1=O (stereo not drawn) [Example 17, 5,7-dichloro-3-(4-chloro-phenyl)-3-methyl-1H-quinoline-2,4-dione] | 1430 | 69.8 | 13.8 | 7.5 | 16.5 | 0.5 | 26.7 | 30.2 | 21.2 | 26.9 |
| CC1(c2ccc(Br)cc2Br)C(=O)Nc2cc(Cl)cc(Cl)c2C1=O (stereo not drawn) [Example 27, 3-(2,4-dibromo-phenyl)-5,7-dichloro-3-methyl-1H-quinoline-2,4-dione] | 349 | 71.1 | 25.8 | 10.2 | 15.6 | 1.6 | 46 | 30.8 | 28.1 | 12.3 |
| COc1ccc(C2(C)C(=O)Nc3c(Br)cc(Br)cc3C2=O)cc1[N+](=O)[O-] (stereo not drawn) [Example 28, 6,8-dibromo-3-(4-methoxy-3-nitro-phenyl)-3-methyl-1H-quinoline-2,4-dione] | 1200 | 73.2 | 46.9 | 9.4 | 40.9 | 2.3 | 60.9 | 9 | 13.7 | 10.2 |
| COc1ccc(C2(C)C(=O)Nc3c(Br)cc(Br)cc3C2=O)cc1N (stereo not drawn) [Example 29, 3-(3-amino-4-methoxy-phenyl)-6,8-dibromo-3-methyl-1H-quinoline-2,4-dione] | 1550 | 68.5 | 23.6 | 5.6 | 43.8 | 11.6 | 40.7 | 21.1 | 40.6 | 28.1 |
| CC1(c2ccc(O)c(N)c2)C(=O)Nc2c(Br)cc(Br)cc2C1=O (stereo not drawn) [Example 30, 3-(3-amino-4-hydroxy-phenyl)-6,8-dibromo-3-methyl-1H-quinoline-2,4-dione] | 1730 | 69.2 | 18.6 | 18.5 | 25.1 | 0.9 | 0 | 35.1 | 5.4 | 4.9 |
| COc1ccc(C2(C)C(=O)Nc3ccccc3C2=O)cc1 (stereo not drawn) [Example 33, 3-(4-methoxy-phenyl)-3-methyl-1H-quinoline-2,4-dione] | 487 | 72.4 | 29.5 | 20.9 | 13.1 | 0 | 20.4 | 10.7 | 13.5 | 6.6 |
